Measurements published in BindingDB's records for doi:10.1021/ml400144e (Riken, 2013).

biological target: T1, NF-kappa-B inhibitor alpha (Homo sapiens, UniProt P25963); experiment: Inhibition of TNFalpha-induced IkappaBalpha (unknown origin) phosphorylation expressed in human HeLa cells pretreated 30 mins before TNFalpha addition measured up to 120 mins by ELISA in presence of proteasome inhibitor MG-132
T1 sequence (P25963 whole entry): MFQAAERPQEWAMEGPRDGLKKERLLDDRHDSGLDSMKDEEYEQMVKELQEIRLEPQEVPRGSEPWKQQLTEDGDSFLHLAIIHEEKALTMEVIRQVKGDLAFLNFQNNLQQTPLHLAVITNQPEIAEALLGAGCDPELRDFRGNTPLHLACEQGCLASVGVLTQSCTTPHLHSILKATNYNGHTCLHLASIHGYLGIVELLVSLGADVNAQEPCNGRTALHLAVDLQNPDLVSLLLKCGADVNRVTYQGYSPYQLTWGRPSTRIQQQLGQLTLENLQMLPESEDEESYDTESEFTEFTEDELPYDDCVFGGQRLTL

Structure (SMILES)	IC50 [µM]
C[C@@]12C[C@H]3OC(=O)[C@@H]1CO[C@@]14O[C@]5(C2C1=O)[C@@](O)(CC[C@H]1[C@H]4C[C@@H]2O[C@@]24CC=CC(=O)[C@]14C)C(=O)O[C@@]35C [PHYSALIN J]	> 50
CC1=C(C)C(=O)O[C@@H]([C@](C)(O)[C@H]2CC[C@@]3(O)[C@@H]4CC=C5CC=CC(=O)[C@]5(C)[C@H]4CC[C@]23C)C1	> 50
C=C1C(=O)O[C@@H]2C[C@@]1(C)[C@@H]1C(=O)[C@]3(O)O[C@]14[C@@]2(C)OC(=O)[C@@]4(O)CC[C@H]1[C@H]3[C@H](O)C=C2CC=CC(=O)[C@@]21C [PHYSALIN A]	> 50
C[C@H]1C(=O)OC[C@H]1C[C@@H](O)[C@](C)(O)[C@@]1(O)CC[C@@]2(O)[C@@H]3CC=C4CC=CC(=O)[C@]4(C)[C@H]3CC[C@]12C	> 50
C[C@H]1C(=O)OC[C@H]1C[C@@H](O)[C@](C)(O)[C@]1(O)CC[C@@]2(O)[C@@H]3CC=C4CC=CC(=O)[C@]4(C)[C@H]3CC[C@]12C	> 50
C[C@@H]1C(=O)O[C@@H]2C[C@@]1(C)[C@@H]1C(=O)[C@]3(O)O[C@]14[C@@]2(C)OC(=O)[C@@]4(O)CC[C@H]1[C@H]3[C@H](O)C=C2CC=CC(=O)[C@@]21C [PHYSALIN O]	> 50
C[C@]12C(=O)C=CCC1=CC[C@@H]1[C@@H]2CC[C@]2(O)C(=O)O[C@@]3(C)[C@H]4C[C@]5(C)[C@@H](CO[C@@]16O[C@@]32[C@H]5C6=O)C(=O)O4 [NSC-287088]	37.5
CC1=C(C)C(=O)O[C@@H]([C@](C)(O)[C@]2(O)CC[C@@]3(O)[C@@H]4CC=C5CC=CC(=O)[C@]5(C)[C@H]4CC[C@]23C)C1 [WITHANOLIDE F]	> 50
C[C@@]12C[C@H]3OC(=O)[C@@H]1CO[C@]14O[C@]5([C@H]2C1=O)[C@@](O)(CC[C@H]1[C@H]4C[C@H]2O[C@]24CC=CC(=O)[C@]14C)C(=O)O[C@@]35C [PHYSALIN F]	27.1
CC1=C(C)C(=O)O[C@@H]([C@](C)(O)[C@]2(O)CC[C@@]3(O)[C@@H]4C[C@H]5O[C@]56CC=CC(=O)[C@]6(C)[C@H]4CC[C@]23C)C1 [WITHANOLIDE E]	18
C[C@]12C(=O)C=CCC1=C[C@@H](O)[C@@H]1[C@@H]2CC[C@@]2(O)C(=O)O[C@@]3(C)[C@H]4C[C@]5(C)[C@@H](CO[C@@]16O[C@]23[C@H]5C6=O)C(=O)O4	> 50
C=C1C(=O)O[C@@H]2C[C@@]1(C)[C@@H]1C(=O)[C@]3(O)O[C@]14[C@@]2(C)OC(=O)[C@@]4(O)CC[C@H]1[C@H]3CC=C2CC=CC(=O)[C@@]21C	26.2
C[C@@]12C[C@H]3OC(=O)[C@]1(O)CO[C@]14O[C@@]5([C@H]2C1=O)[C@@]3(C)OC(=O)[C@@]5(O)CC[C@H]1[C@H]4C[C@@H]2O[C@@]23CC=CC(=O)[C@]13C [25-HYDROXY PHYSALIN J]	> 50
CC1=C(C)C(=O)O[C@@H]([C@](C)(O)C2=CC[C@@]3(O)[C@@H]4CC=C5CC=CC(=O)[C@]5(C)[C@H]4CC[C@]23C)C1	> 50
C[C@@]12C[C@H]3OC(=O)[C@]1(O)CO[C@]14O[C@@]5([C@H]2C1=O)[C@@]3(C)OC(=O)[C@@]5(O)CC[C@H]1[C@H]4C[C@H]2O[C@]23CC=CC(=O)[C@]13C [25-HYDROXY PHYSALIN F]	30.1
C[C@]12C(=O)C=CCC1=CC[C@@H]1[C@@H]2CC[C@]2(O)C(=O)O[C@@]3(C)[C@H]4C[C@@](C)([C@@H]5C(=O)[C@]1(O)O[C@@]532)[C@](C)(O)C(=O)O4	> 50
